Results: patent publication US20230284620A1, “MIXTURES OF PYRIDAZINES AS HERBICIDAL COMPOSITIONS” (SYNGENTA CROP PROTECTION AG, priority 2020, published 2023)
Values joined by “and” are separate entries in the source; they are usually repeats but may differ in a detail not shown here. Equal entries are not always repeated.

Experiments:
Assay in all cases: Post-emergence glasshouse herbicide test, visual phytotoxicity
Type in all cases: in vivo
Conditions in all cases: 13 days
[1] = system: Abutilon threophrasti (ABUTH)
Method: (§1) Seeds of Setaria faberi (SETFA), Echinochloa crus-galli (ECHCG), Digitaria sanguinalis (DIGSA), Lolium perenne (LOLPE), Alopecurus myosuroides (ALOMY), Chenopodium album (CHEAL), Ipomoea hederacea (IPOHE), Stellaria media (STEME), Abutilon threophrasti (ABUTH) and Amaranthus retroflexus (AMARE) were sown in standard sterilised soil in pots. After cultivation for 8 days under controlled conditions in a glasshouse (at 24/19° C., day/night; 16 hours light; no humidity control), the plants were sprayed at 500 l/Ha with an aqueous spray solution derived from the formulation of the technical active ingredients in a small amount of acetone and a solvent and emulsifier mixture referred to as IF50 (11.12% Emulsogen EL360 TM+44.44% N-methylpyrrolidone+44.44% Dowanol DPM glycol ether), to create a 50 g/l solution which was then diluted using 0.2% Genapol X080 (CAS Number: 9043-30-5) as diluent to give the desired final dose of test compound.
(§2) Where active ingredients were applied as mixtures, aqueous spray solutions were prepared as above, containing both active ingredients.
(§3) The test plants were then grown under controlled conditions in a glasshouse (at 24/18° C., day/night; 15 hours light; 50% humidity) and watered twice daily. After 13 days, the test was evaluated visually for percentage phytotoxicity to the plants (where 100=total damage to plant; 0=no damage to plant; and NC=not captured) when compared to control untreated plants. Two to four replicates were applied for each treatment in a randomised block test design.
(§4) 22., E=X+Y−(X*Y/100), where • X=average percent phytotoxicity of herbicide A when applied at a certain rate • Y=average percent phytotoxicity using herbicide B when applied at a certain rate • E=the expected effect of the mixture of herbicides A and B as calculated from the Colby formula.

[2] = system: Alopecurus myosuroides (ALOMY)
Method: as §1, §2, §3, §4

[3] = system: Amaranthus retroflexus (AMARE)
Method: as §1, §2, §3, §4

[4] = system: Chenopodium album (CHEAL)
Method: as §1, §2, §3, §4

[5] = system: Digitaria sanguinalis (DIGSA)
Method: as §1, §2, §3, §4

[6] = system: Echinochloa crus-galli (ECHCG)
Method: as §1, §2, §3, §4

[7] = system: Ipomoea hederacea (IPOHE)
Method: as §1, §2, §3, §4

[8] = system: Lolium perenne (LOLPE)
Method: as §1, §2, §3, §4

[9] = system: Setaria faberi (SETFA)
Method: as §1, §2, §3, §4

[10] = system: Stellaria media (STEME)
Method: as §1, §2, §3, §4

CC1(C)CN(Cc2ccccc2NS(=O)(=O)C(F)(F)F)C1=O [B-IV]
percentage phytotoxicity ABUTH ([1]; 31.25 g/ha): 15%
percentage phytotoxicity ABUTH ([1]; 62.5 g/ha): 3%
percentage phytotoxicity ABUTH ([1]; 125 g/ha): 13%
percentage phytotoxicity ABUTH ([1]; 250 g/ha): 45%
percentage phytotoxicity ABUTH ([1]; 500 g/ha): 60%
percentage phytotoxicity ALOMY ([2]; 31.25 g/ha): 0%
percentage phytotoxicity ALOMY ([2]; 62.5 g/ha): 0%
percentage phytotoxicity ALOMY ([2]; 125 g/ha): 23%
percentage phytotoxicity ALOMY ([2]; 250 g/ha): 50%
percentage phytotoxicity ALOMY ([2]; 500 g/ha): 73%
percentage phytotoxicity AMARE ([3]; 31.25 g/ha): 73%
percentage phytotoxicity AMARE ([3]; 62.5 g/ha): 80%
percentage phytotoxicity AMARE ([3]; 125 g/ha): 83%
percentage phytotoxicity AMARE ([3]; 250 g/ha): 85%
percentage phytotoxicity AMARE ([3]; 500 g/ha): 83%
percentage phytotoxicity CHEAL ([4]; 31.25 g/ha): 15%
percentage phytotoxicity CHEAL ([4]; 62.5 g/ha): 30%
percentage phytotoxicity CHEAL ([4]; 125 g/ha): 15%
percentage phytotoxicity CHEAL ([4]; 250 g/ha): 20%
percentage phytotoxicity CHEAL ([4]; 500 g/ha): 58%
percentage phytotoxicity DIGSA ([5]; 31.25 g/ha): 0%
percentage phytotoxicity DIGSA ([5]; 62.5 g/ha): 0%
percentage phytotoxicity DIGSA ([5]; 125 g/ha): 18%
percentage phytotoxicity DIGSA ([5]; 250 g/ha): 38%
percentage phytotoxicity DIGSA ([5]; 500 g/ha): 70%
percentage phytotoxicity ECHCG ([6]; 31.25 g/ha): 0%
percentage phytotoxicity ECHCG ([6]; 62.5 g/ha): 0%
percentage phytotoxicity ECHCG ([6]; 125 g/ha): 45%
percentage phytotoxicity ECHCG ([6]; 250 g/ha): 53%
percentage phytotoxicity ECHCG ([6]; 500 g/ha): 63%
percentage phytotoxicity IPOHE ([7]; 31.25 g/ha): 75%
percentage phytotoxicity IPOHE ([7]; 62.5 g/ha): 35%
percentage phytotoxicity IPOHE ([7]; 125 g/ha): 88%
percentage phytotoxicity IPOHE ([7]; 250 g/ha): 89%
percentage phytotoxicity IPOHE ([7]; 500 g/ha): 93%
percentage phytotoxicity LOLPE ([8]; 31.25 g/ha): 0%
percentage phytotoxicity LOLPE ([8]; 62.5 g/ha): 0%
percentage phytotoxicity LOLPE ([8]; 125 g/ha): 33%
percentage phytotoxicity LOLPE ([8]; 250 g/ha): 48%
percentage phytotoxicity LOLPE ([8]; 500 g/ha): 80%
percentage phytotoxicity SETFA ([9]; 31.25 g/ha): 0%
percentage phytotoxicity SETFA ([9]; 62.5 g/ha): 0%
percentage phytotoxicity SETFA ([9]; 125 g/ha): 23% and 22%
percentage phytotoxicity SETFA ([9]; 250 g/ha): 48%
percentage phytotoxicity SETFA ([9]; 500 g/ha): 50%
percentage phytotoxicity STEME ([10]; 31.25 g/ha): 68%
percentage phytotoxicity STEME ([10]; 62.5 g/ha): 78%
percentage phytotoxicity STEME ([10]; 125 g/ha): 80%
percentage phytotoxicity STEME ([10]; 250 g/ha): 80%
percentage phytotoxicity STEME ([10]; 500 g/ha): 83%

COc1c(Cl)ccc(-c2nc(C(=O)OCc3ccccc3)c(Cl)c(N)c2F)c1F [B-I]
percentage phytotoxicity ABUTH ([1]; 0.625 g/ha): 78%
percentage phytotoxicity ABUTH ([1]; 1.25 g/ha): 80%
percentage phytotoxicity ABUTH ([1]; 2.5 g/ha): 83%
percentage phytotoxicity ABUTH ([1]; 5 g/ha): 90%
percentage phytotoxicity ABUTH ([1]; 10 g/ha): 85%
percentage phytotoxicity ALOMY ([2]; 0.625 g/ha): 0%
percentage phytotoxicity ALOMY ([2]; 1.25 g/ha): 0%
percentage phytotoxicity ALOMY ([2]; 2.5 g/ha): 0%
percentage phytotoxicity ALOMY ([2]; 5 g/ha): 0%
percentage phytotoxicity ALOMY ([2]; 10 g/ha): 5%
percentage phytotoxicity AMARE ([3]; 0.625 g/ha): 63%
percentage phytotoxicity AMARE ([3]; 1.25 g/ha): 70%
percentage phytotoxicity AMARE ([3]; 2.5 g/ha): 80%
percentage phytotoxicity AMARE ([3]; 5 g/ha): 80%
percentage phytotoxicity AMARE ([3]; 10 g/ha): 93%
percentage phytotoxicity CHEAL ([4]; 0.625 g/ha): 85%
percentage phytotoxicity CHEAL ([4]; 1.25 g/ha): 73%
percentage phytotoxicity CHEAL ([4]; 2.5 g/ha): 83%
percentage phytotoxicity CHEAL ([4]; 5 g/ha): 91%
percentage phytotoxicity CHEAL ([4]; 10 g/ha): 93%
percentage phytotoxicity DIGSA ([5]; 0.625 g/ha): 0%
percentage phytotoxicity DIGSA ([5]; 1.25 g/ha): 8%
percentage phytotoxicity DIGSA ([5]; 2.5 g/ha): 0%
percentage phytotoxicity DIGSA ([5]; 5 g/ha): 0%
percentage phytotoxicity DIGSA ([5]; 10 g/ha): 0%
percentage phytotoxicity ECHCG ([6]; 0.625 g/ha): 0%
percentage phytotoxicity ECHCG ([6]; 1.25 g/ha): 8%
percentage phytotoxicity ECHCG ([6]; 2.5 g/ha): 0%
percentage phytotoxicity ECHCG ([6]; 5 g/ha): 0%
percentage phytotoxicity ECHCG ([6]; 10 g/ha): 10%
percentage phytotoxicity IPOHE ([7]; 0.625 g/ha): 53%
percentage phytotoxicity IPOHE ([7]; 1.25 g/ha): 58%
percentage phytotoxicity IPOHE ([7]; 2.5 g/ha): 58%
percentage phytotoxicity IPOHE ([7]; 5 g/ha): 63%
percentage phytotoxicity IPOHE ([7]; 10 g/ha): 75%
percentage phytotoxicity LOLPE ([8]; 0.625 g/ha): 0%
percentage phytotoxicity LOLPE ([8]; 1.25 g/ha): 10%
percentage phytotoxicity LOLPE ([8]; 2.5 g/ha): 0%
percentage phytotoxicity LOLPE ([8]; 5 g/ha): 0%
percentage phytotoxicity LOLPE ([8]; 10 g/ha): 0%
percentage phytotoxicity SETFA ([9]; 0.625 g/ha): 0%
percentage phytotoxicity SETFA ([9]; 1.25 g/ha): 5%
percentage phytotoxicity SETFA ([9]; 2.5 g/ha): 0%
percentage phytotoxicity SETFA ([9]; 5 g/ha): 0%
percentage phytotoxicity SETFA ([9]; 10 g/ha): 5%
percentage phytotoxicity STEME ([10]; 0.625 g/ha): 63%
percentage phytotoxicity STEME ([10]; 1.25 g/ha): 65%
percentage phytotoxicity STEME ([10]; 2.5 g/ha): 80%
percentage phytotoxicity STEME ([10]; 5 g/ha): 85%
percentage phytotoxicity STEME ([10]; 10 g/ha): 90%

Nc1c(F)c(-c2ccc3cc[nH]c3c2F)nc(C(=O)O)c1Cl [B-VI]
percentage phytotoxicity ABUTH ([1]; 0.625 g/ha): 48%
percentage phytotoxicity ABUTH ([1]; 1.25 g/ha): 70%
percentage phytotoxicity ABUTH ([1]; 2.5 g/ha): 78%
percentage phytotoxicity ABUTH ([1]; 5 g/ha): 80%
percentage phytotoxicity ABUTH ([1]; 10 g/ha): 93%
percentage phytotoxicity ALOMY ([2]; 0.625 g/ha): 0%
percentage phytotoxicity ALOMY ([2]; 1.25 g/ha): 0%
percentage phytotoxicity ALOMY ([2]; 2.5 g/ha): 10%
percentage phytotoxicity ALOMY ([2]; 5 g/ha): 8%
percentage phytotoxicity ALOMY ([2]; 10 g/ha): 25%
percentage phytotoxicity AMARE ([3]; 0.625 g/ha): 83%
percentage phytotoxicity AMARE ([3]; 1.25 g/ha): 83%
percentage phytotoxicity AMARE ([3]; 2.5 g/ha): 90%
percentage phytotoxicity AMARE ([3]; 5 g/ha): 98%
percentage phytotoxicity AMARE ([3]; 10 g/ha): 100%
percentage phytotoxicity CHEAL ([4]; 0.625 g/ha): 75%
percentage phytotoxicity CHEAL ([4]; 1.25 g/ha): 80%
percentage phytotoxicity CHEAL ([4]; 2.5 g/ha): 83%
percentage phytotoxicity CHEAL ([4]; 5 g/ha): 94%
percentage phytotoxicity CHEAL ([4]; 10 g/ha): 98%
percentage phytotoxicity DIGSA ([5]; 0.625 g/ha): 0%
percentage phytotoxicity DIGSA ([5]; 1.25 g/ha): 0%
percentage phytotoxicity DIGSA ([5]; 2.5 g/ha): 13%
percentage phytotoxicity DIGSA ([5]; 5 g/ha): 15%
percentage phytotoxicity DIGSA ([5]; 10 g/ha): 43%
percentage phytotoxicity ECHCG ([6]; 0.625 g/ha): 0%
percentage phytotoxicity ECHCG ([6]; 1.25 g/ha): 0%
percentage phytotoxicity ECHCG ([6]; 2.5 g/ha): 25%
percentage phytotoxicity ECHCG ([6]; 5 g/ha): 10%
percentage phytotoxicity ECHCG ([6]; 10 g/ha): 53%
percentage phytotoxicity IPOHE ([7]; 0.625 g/ha): 25%
percentage phytotoxicity IPOHE ([7]; 1.25 g/ha): 35%
percentage phytotoxicity IPOHE ([7]; 2.5 g/ha): 38%
percentage phytotoxicity IPOHE ([7]; 5 g/ha): 48%
percentage phytotoxicity IPOHE ([7]; 10 g/ha): 65%
percentage phytotoxicity LOLPE ([8]; 0.625 g/ha): 0%
percentage phytotoxicity LOLPE ([8]; 1.25 g/ha): 0%
percentage phytotoxicity LOLPE ([8]; 2.5 g/ha): 5%
percentage phytotoxicity LOLPE ([8]; 5 g/ha): 5%
percentage phytotoxicity LOLPE ([8]; 10 g/ha): 25%
percentage phytotoxicity SETFA ([9]; 0.625 g/ha): 0%
percentage phytotoxicity SETFA ([9]; 1.25 g/ha): 0%
percentage phytotoxicity SETFA ([9]; 2.5 g/ha): 5%
percentage phytotoxicity SETFA ([9]; 5 g/ha): 2%
percentage phytotoxicity SETFA ([9]; 10 g/ha): 40%
percentage phytotoxicity STEME ([10]; 0.625 g/ha): 65%
percentage phytotoxicity STEME ([10]; 1.25 g/ha): 75%
percentage phytotoxicity STEME ([10]; 2.5 g/ha): 90%
percentage phytotoxicity STEME ([10]; 5 g/ha): 93%
percentage phytotoxicity STEME ([10]; 10 g/ha): 99%
